Like-named read-outs stand apart in the source and are kept apart here. Marks after values point to notes of the source that are not given here.
Experiments:
[1] = system: Cathepsin S; settings: pIC50 = -log10(IC50/M); cited from earlier work
[2] = system: amastigote forms of T. cruzi CL Brener strain; assay: Anti-trypanosomal activity assay (beta-galactosidase reporter, infected LLC-MK2 cells); format: cell-based; settings: Trypanosoma cruzi
Method: Assays were performed against amastigote forms of T. cruzi CL Brener strain, which expresses β-galactosidase derived from Escherichia coli, infecting monkey kidney (LLC-MK2) cells as described. Previously, LLC-MK2 host cells were cultivated in 96-wells microplates (10^3 cells/well). […] Then, the wells were washed with PBS to remove the extracellular parasites and the tested compounds were added in the final concentrations of 0.031, 0.125, 0.5, 2.0, 8.0, 32.0, 128 and 512 μM. After this, the microplates were incubated at 37°C, in CO2 atmosphere (5%), for 5 days. Then, 10 μL of FluoReporter lacZ/Galactosidase Quantitation Kit (Molecular Probes, ThermoFisher Scientific) were added and after 30 minutes the fluorometric reaction was read in a microplate reader (Synergy H1, Biotek) at 386 nm excitation and 448 nm emission. The metabolism of the substrate is directly correlated with the amount of β-galactosidase activity and, therefore, the number amastigotes. The percentage of activity for each compound was determined from the following formula: %activity = 100 –{[(X-PC)/(NC-PC)]x100}, where the optical density values of the samples (X), the positive controls (PC) and negative controls (NC) were used. Culture medium alone was used as positive control (PC) and cells with medium and 0.6% DMSO (v/v) as negative control (NC). All assays were performed in triplicate with two independent experiments.

[3] = system: Cathepsin K; settings: pIC50 = -log10(IC50/M); cited from earlier work
[4] = biological target: T1, Recombinant cruzain (Trypanosoma cruzi, UniProt P25779); assay: Enzyme kinetic assay for cruzain (Z-FR-AMC hydrolysis); format: biochemical; settings: pKi = -log10(Ki/M); uncertainty in parentheses; 37°C, pH 5.5
T1 construct: consisting of the catalytic domain of cruzipain but excluding the carboxy-terminal extension; made in house
T1 sequence (P25779 123-337 limits assumed): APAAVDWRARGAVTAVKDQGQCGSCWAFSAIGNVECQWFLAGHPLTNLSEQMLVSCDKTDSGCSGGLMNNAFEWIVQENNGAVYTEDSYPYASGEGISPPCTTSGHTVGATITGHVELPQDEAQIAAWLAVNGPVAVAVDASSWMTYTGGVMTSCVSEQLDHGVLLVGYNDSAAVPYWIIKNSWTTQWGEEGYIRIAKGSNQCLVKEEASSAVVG
Method: Recombinant cruzain, consisting of the catalytic domain of cruzipain but excluding the carboxy-terminal extension, was expressed and purified as previously described. Enzyme kinetic assays for cruzain were carried out at 37°C in 200 μL of a solution containing 100 mM acetate buffer pH 5.5, 300 mM NaCl, 5 mM dithiothreitol (DTT), 5% v/v dimethyl sulfoxide (DMSO), 0.01% v/v Triton X-100 and 0.15 nM cruzain, using Corning® 96-well black flat bottom microplates. (S)-N-(1-((cyanomethyl)amino)-1-oxo-3-phenylpropan-2-yl)benzamide was used as a positive control. The rate of the reaction was monitored using a Biotek Synergy HT plate reader through the fluorescence emission at 460 nm (excitation at 355 nm) due to the hydrolysis of the substrate Z-Phe-Arg-7-amido-4-methylcoumarin (Z-FR-AMC, Sigma-Aldrich). The enzyme stock aliquot was rapidly thawed at 37°C and kept on ice until activation, in which it was incubated for 20 min. in the assay buffer (100 mM acetate pH 5.5 and 5 mM DTT) followed by additional 2 min. incubation with inhibitors before the reaction was started by the addition of the substrate.
Visual inspection and a pre-reading of plate wells were performed to check for possible precipitation and background fluorescence, respectively. Fluorescence emission spectra were also recorded for all inhibitors, using the same excitation wavelength (355 nm) as for the fluorometric assay. […] The reaction was started by the addition of varying concentrations of the substrate and the wells monitored for a total of 5 minutes of reaction. The initial velocities of the substrate hydrolysis under first-order reaction were calculated by Gen5 Biotek software based on the linear-regression coefficient from the data fitting of Relative Fluorescence Unit (mRFU) as a function of time (min).
Each experiment was performed in duplicates for each compound being tested. A control measurement in absence of inhibitor (KM) was carried out for each setup plate and the kinetic affinity constants (Ki) were calculated from non-linear fit of Michaelis-Menten curves to the data of initial velocities as a function of eight different concentrations of the substrate Z-FR-AMC from 30.0–0.8 μM. All inhibitors were evaluated in two different concentrations, which were chosen based on a previous screening (percentage of inhibition) at 1.7 μM substrate (~KM). SigmaPlot (v. 10.0) was employed for the non-linear fit and the kinetic parameters determination.

[5] = system: LLC-MK2 cells; assay: Cytotoxicity in LLC-MK2 cells; format: cell-based, monkey; settings: % cytotoxicity in LLC-MK2 cells at 128 μM; standard deviation (N = 6) in parentheses
Source text: Table 2 Anti-trypanosomal activity of cysteine protease inhibitors. | column: Cytotox LLC-MK2 ^c

[6] = biological target: T2, human Cat L (Homo sapiens, UniProt P07711); assay: Cat L inhibition assay (QFRET, Z-Phe-Arg-AMC cleavage); format: biochemical; settings: pIC50 = -log10(IC50/M); determined using the Cat L inhibition assay method of ref. 24; pH 6.4; read-out: Cathepsin L pIC50 (converted)
T2 construct: made in house
T2 sequence (P07711 114-333): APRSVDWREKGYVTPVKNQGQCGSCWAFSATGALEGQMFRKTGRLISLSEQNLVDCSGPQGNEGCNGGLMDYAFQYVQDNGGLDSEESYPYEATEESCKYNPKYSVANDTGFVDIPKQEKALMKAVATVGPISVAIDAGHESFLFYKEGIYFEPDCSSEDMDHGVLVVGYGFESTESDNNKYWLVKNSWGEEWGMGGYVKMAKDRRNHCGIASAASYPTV
Method: (§1) Enzyme kinetic assays for cathepsin L were performed in a similar manner to the cruzain assays at 37°C in 200 μL of a solution containing 100 mM acetate buffer pH 5.5, 300 mM NaCl, 1 mM dithiothreitol (DTT), 1 mM EDTA, 5% v/v dimethyl sulfoxide (DMSO), 0.01% v/v Triton X-100 and 0.30 nM cathepsin L, using Corning® 96-well black flat bottom microplates. Using the QFRET technology, compounds 9–12 were tested for inhibition of cathepsin L-mediated cleavage of a synthetic peptide Z-Phe-Arg-AMC (10 μM final concentration) using 0.1 nM [final] human Cat L (prepared in-house). […]

[7] = system: Balb/C 3T3 clone A31 cells; assay: MTT colorimetric cytotoxicity assay; format: cell-based, mouse; settings: % cytotoxicity in Balb/C 3T3 clone A31 cells at 128 μM; standard deviation (N = 8) in parentheses
Method: Inhibition values were determined in the cell-based assay as previously described. […] Cells were plated at a concentration of 10^5 cell/mL in 96-well plates and incubated for 24 h. […] The cell viability was assessed during 24, 48 and 72 h using the MTT (Sigma-Aldrich) reagent, with an incubation time of 3 h. Formazan crystals were dissolved using a solubility reagent composed of DMSO, glacial acetic acid and […] for 1 h. The readout was obtained using Biotek Synergy HT plate reader at 570 nm. Benznidazole was used as control. This assay was done in quadruplicate in two independent experiments. Statistical analyses were made in GraphPad Prism 5. Concentration-response curves were fitted for the best compounds and the statistical parameters are provided with the graphs in S9 Fig in the supplemental material.

[8] = system: Cathepsin B; settings: pIC50 = -log10(IC50/M); cited from earlier work
[9] = biological target: T3, cathepsin L (Homo sapiens, UniProt P07711); settings: pIC50 = -log10(IC50/M); cited from earlier work
T3 sequence (P07711 114-333, species assumed): as the sequence (P07711 114-333) above

[10] = biological target: T3, cathepsin L; assay: Enzyme kinetic assay for cathepsin L; format: biochemical; settings: pKi = -log10(Ki/M); uncertainty in parentheses; 37°C, pH 5.5
Method: as §1

[11] = LLC-MK2, 0.125 μM, standard deviation (N = 6) in parentheses, read-out: %activity at 0.125 μM
[12] = LLC-MK2, 0.5 μM, standard deviation (N = 6) in parentheses, read-out: %activity at 0.5 μM
[13] = LLC-MK2, 2 μM, standard deviation (N = 6) in parentheses, read-out: %activity at 2 μM
[14] = LLC-MK2, 8 μM, standard deviation (N = 6) in parentheses, read-out: %activity at 8 μM
[15] = 120 h, pEC50 = -log10(EC50/M), T. cruzi CL Brener amastigotes in LLC-MK2 cells, 5 days, read-out: pEC50 (anti-trypanosomal activity) (converted)
[16] = LLC-MK2, T. cruzi CL Brener strain, read-out: EC50 (anti-trypanosomal activity)

SMILES | Cathepsin S pIC50 [1] | inhibition at 0.125 µM [2, 11] [%] | inhibition at 0.5 µM [2, 12] [%] | inhibition at 2 µM [2, 13] [%] | inhibition at 8 µM [2, 14] [%] | Cathepsin K pIC50 [3] | Ki [4] [nM] | Cytotox LLC-MK2 [5] | IC50 [6] [nM] | Cytotox Balb/C 3TC [7] | Cathepsin B pIC50 [8] | EC50 [2, 15] [nM] | EC50 [2, 16] [nM] | Cathepsin L pIC50 [9] | inhibition at 0.125 µM ([2]; LLC-MK2, read-out: %activity at 0.125 μM) [%] | inhibition at 0.5 µM ([2]; LLC-MK2, read-out: %activity at 0.5 μM) [%] | inhibition at 2 µM ([2]; LLC-MK2, read-out: %activity at 2 μM) [%] | inhibition at 8 µM ([2]; LLC-MK2, read-out: %activity at 8 μM) [%] | Ki [10] [nM]
CS(=O)(=O)c1ccc(N2CCN(C(=O)[C@@H]3CCCC[C@H]3C(=O)NC3(C#N)CC3)CC2)cc1 [Compound 9] | 5.7 ^g | 6 | 15 | 30 | 33 | 7.7 ^g | 5010 | 0 (0) % | > 10000 | 3 (7) % | 5.6 ^g | – | – | – | – | – | – | – | –
Cc1nn(C)c2cc(N3CCN(C(=O)[C@@H]4CCCC[C@H]4C(=O)NC4(C#N)CC4)[C@H](C)C3)ccc12 [Compound 12] | 5.9 ^g | 20 | 40 | 45 | 50 | 8.0 ^g | 3160 | 8 (2) % | > 10000 | 0 (0) % | 6.1 ^g | 1260 | 1300 | – | – | – | – | – | –
COc1cc(N2CCN(C(=O)[C@@H]3CCCC[C@H]3C(=O)NC3(C#N)CC3)[C@H](C)C2)ccc1C1CC1 [Compound 11] | 5.9 ^g | 33 | 62 | 76 | 83 | 8.5 ^g | 2510 | 36 (7) % | > 10000 | 0 (0) % | 5.9 ^g | 251 | 250 | – | – | – | – | – | –
N#CCNC(=O)[C@@H]1CCCC[C@H]1C(=O)N1CCN(c2ccccc2)CC1 [Compound 8] | 6.0 ^e | 1 | 7 | 21 | 35 | 8.1 ^e | 5010 | 29 (8) % | – | 0 (0) % | 6.3 ^e | – | – | < 4 ^e | – | – | – | – | –
N#CCNC(=O)[C@@H]1CCCC[C@H]1C(=O)N1CCCCC1 [Compound 7] | 5.7 ^e | 0 | 2 | 9 | 12 | 7.1 ^e | 7940 | 4 (3) % | – | 2 (7) % | 5.1 ^e | – | – | < 4 ^e | – | – | – | – | –
COc1ccc(N2CCN(C(=O)[C@@H]3CCCC[C@H]3C(=O)NC3(C#N)CC3)[C@H](C)C2)cc1OC [Compound 10] | 5.8 ^g | – | – | – | – | 8.4 ^g | 1260 | 15(3) % | > 10000 | 0 (0) % | 5.7 ^g | – | – | – | 6 | 22 | 26 | 28 | –
N#CC1(NC(=O)[C@H](Cc2ccccc2)N[C@H](c2ccccc2)C(F)(F)F)CC1 [Compound 5, (S)-N-(1-cyanocyclopropyl)-3-phenyl-2-(((R)-2,2,2-trifluoro-1-phenyl-ethyl)amino)propanamide] | – | 44 | 55 | 62 | 70 | – | 2510 | 0 (0) % | – | 1 (7) % | – | 126 | 120 | – | – | – | – | – | 794
O=C(Cn1ccnc1[N+](=O)[O-])NCc1ccccc1 [Compound 1, benznidazole] | – | 3 | 7 | 33 | 59 | – | – | 41 (8) % | – | 0 (0) % | – | 2510 | – | – | – | – | – | – | –
